Data taken from patent US8178668B2, “2-aminopyridine kinase inhibitors” (OSI Pharmaceuticals, LLC, priority 2008, dated 2012).

Key:
[1] = target: RON (human) (Homo sapiens, UniProt Q04912); test: RON kinase AlphaScreen assay (Km of ATP); assay type: biochemical; conditions: ATP at Km; at least duplicate experiments
Method in brief: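 Human RON phosphorylated biotinylated poly(Glu,Tyr) (200 ng/μL) at Km ATP in 50 mM HEPES pH 7.4, 12.5 mM MgCl2, 1% glycerol, 0.334 mM vanadate, 1% DMSO. Reaction ran 30 min at RT after enzyme addition. Product was detected by AlphaScreen with PT66 beads after 1 h.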

[2] = target: MET (human) (Homo sapiens, UniProt P08581); test: MET kinase AlphaScreen assay (Km of ATP); assay type: biochemical; conditions: ATP at Km; at least duplicate experiments
MET (human), sequence (P08581 25-1390): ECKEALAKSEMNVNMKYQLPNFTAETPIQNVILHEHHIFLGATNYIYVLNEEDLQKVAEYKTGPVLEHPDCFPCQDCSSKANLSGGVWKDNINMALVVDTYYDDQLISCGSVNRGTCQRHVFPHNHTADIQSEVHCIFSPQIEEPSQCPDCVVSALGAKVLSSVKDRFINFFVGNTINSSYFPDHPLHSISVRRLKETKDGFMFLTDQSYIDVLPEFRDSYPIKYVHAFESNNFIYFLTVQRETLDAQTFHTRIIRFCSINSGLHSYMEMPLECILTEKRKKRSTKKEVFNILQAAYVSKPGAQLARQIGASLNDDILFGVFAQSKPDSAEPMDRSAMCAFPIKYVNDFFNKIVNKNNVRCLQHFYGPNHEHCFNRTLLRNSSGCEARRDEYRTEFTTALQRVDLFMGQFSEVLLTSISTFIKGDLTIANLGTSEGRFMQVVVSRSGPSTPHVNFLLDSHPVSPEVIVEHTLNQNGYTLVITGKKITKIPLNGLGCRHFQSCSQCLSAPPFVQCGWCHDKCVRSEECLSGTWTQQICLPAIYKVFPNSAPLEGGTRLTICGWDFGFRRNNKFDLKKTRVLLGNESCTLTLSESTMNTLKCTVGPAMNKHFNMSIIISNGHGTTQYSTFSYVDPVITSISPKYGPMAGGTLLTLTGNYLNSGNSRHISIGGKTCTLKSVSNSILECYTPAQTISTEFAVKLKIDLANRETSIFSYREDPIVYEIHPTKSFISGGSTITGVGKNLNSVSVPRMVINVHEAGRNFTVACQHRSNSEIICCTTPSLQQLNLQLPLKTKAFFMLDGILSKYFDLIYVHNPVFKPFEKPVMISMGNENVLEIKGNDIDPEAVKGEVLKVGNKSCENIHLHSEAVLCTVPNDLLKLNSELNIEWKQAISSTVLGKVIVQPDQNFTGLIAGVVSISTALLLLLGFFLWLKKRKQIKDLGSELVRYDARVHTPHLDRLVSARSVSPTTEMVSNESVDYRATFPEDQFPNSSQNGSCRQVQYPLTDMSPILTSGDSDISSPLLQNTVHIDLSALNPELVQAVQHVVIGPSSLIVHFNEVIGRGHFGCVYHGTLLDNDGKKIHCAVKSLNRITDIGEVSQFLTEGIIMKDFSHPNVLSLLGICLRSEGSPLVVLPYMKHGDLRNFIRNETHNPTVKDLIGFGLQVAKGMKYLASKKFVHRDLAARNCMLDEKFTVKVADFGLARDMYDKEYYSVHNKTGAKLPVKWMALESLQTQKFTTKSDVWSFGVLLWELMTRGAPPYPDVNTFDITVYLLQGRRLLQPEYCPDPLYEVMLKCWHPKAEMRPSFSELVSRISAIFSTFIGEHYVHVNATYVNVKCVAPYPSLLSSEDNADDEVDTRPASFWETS
Method in brief: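 Biotinylated poly(Glu,Tyr) (200 ng/μL) phosphorylated by MET with ATP at an enzyme-optimized level, in 50 mM HEPES pH 7.4 with Mg2+/Mn2+ and vanadate, 1% DMSO. Reaction runs 60 min at RT. PT66 AlphaScreen donor/acceptor beads are added and signal is read after 1 h.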

RON (human), sequence (Q04912 25-1400): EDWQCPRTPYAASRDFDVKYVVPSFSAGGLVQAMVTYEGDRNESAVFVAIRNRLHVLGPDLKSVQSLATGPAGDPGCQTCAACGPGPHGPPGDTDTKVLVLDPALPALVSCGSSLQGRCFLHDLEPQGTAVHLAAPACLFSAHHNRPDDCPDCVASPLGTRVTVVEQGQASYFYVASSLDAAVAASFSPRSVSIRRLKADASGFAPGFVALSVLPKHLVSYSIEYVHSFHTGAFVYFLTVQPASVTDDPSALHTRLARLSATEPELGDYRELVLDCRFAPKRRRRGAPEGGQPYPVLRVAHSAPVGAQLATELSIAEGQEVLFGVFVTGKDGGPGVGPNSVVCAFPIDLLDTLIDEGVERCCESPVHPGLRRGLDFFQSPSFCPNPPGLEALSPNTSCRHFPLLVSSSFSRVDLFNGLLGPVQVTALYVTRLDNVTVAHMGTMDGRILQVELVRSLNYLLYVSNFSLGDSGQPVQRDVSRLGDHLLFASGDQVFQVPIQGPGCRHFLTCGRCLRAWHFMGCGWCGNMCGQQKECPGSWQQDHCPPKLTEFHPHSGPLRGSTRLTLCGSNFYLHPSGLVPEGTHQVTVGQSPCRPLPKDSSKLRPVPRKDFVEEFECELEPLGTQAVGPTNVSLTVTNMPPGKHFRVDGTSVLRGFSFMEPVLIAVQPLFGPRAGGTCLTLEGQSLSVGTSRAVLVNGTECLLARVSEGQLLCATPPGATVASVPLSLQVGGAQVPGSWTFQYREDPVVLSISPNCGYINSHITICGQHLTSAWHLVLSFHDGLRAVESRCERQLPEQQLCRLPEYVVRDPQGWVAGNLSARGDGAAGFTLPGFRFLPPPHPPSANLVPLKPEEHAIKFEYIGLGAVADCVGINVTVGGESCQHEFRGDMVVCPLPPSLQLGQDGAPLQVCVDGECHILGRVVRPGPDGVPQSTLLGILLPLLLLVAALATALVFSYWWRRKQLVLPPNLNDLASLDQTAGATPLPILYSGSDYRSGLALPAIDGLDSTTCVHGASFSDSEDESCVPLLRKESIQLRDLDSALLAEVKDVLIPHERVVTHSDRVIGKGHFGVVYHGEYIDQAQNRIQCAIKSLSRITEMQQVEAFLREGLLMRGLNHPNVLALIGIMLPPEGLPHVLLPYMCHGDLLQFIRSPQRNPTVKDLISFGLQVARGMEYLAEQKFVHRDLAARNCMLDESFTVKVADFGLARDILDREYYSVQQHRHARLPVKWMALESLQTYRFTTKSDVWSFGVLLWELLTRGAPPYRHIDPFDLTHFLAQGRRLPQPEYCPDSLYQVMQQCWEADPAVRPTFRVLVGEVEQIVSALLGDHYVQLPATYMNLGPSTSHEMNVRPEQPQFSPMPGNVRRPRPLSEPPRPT

Row | SMILES | IC50 [1] [µM] | IC50 [2] [µM]
1 | CN(C)C(=O)c1ccc(-c2cnc(N)c(-c3nc4ccccc4s3)c2)cc1 [Example 183, 4-(6-Amino-5-benzothiazol-2-ylpyridin-3-yl)-N,N-dimethylbenzamide] | 1 to 20 | 1 to 20
2 | CN1CCN(C(=O)c2cccc(-c3cnc(N)c(-c4nc5ccccc5s4)c3)c2)CC1 [Example 184, [3-(6-Amino-5-benzothiazol-2-ylpyridin-3-yl)phenyl]-(4-methylpiperazin-1-yl)methanone] | 1 to 20 | 1 to 20
3 | CN(C)CCNC(=O)c1ccc(-c2cnc(N)c(-c3nc4ccccc4s3)c2)cc1 [Example 185, 4-(6-Amino-5-benzothiazol-2-ylpyridin-3-yl)-N-(2-dimethylaminoethyl)benzamide] | 1 to 20 | 0.1 to 1
4 | CN(C)C(=O)c1cccc(-c2cnc(N)c(-c3nc4ccccc4s3)c2)c1 [Example 186, 3-(6-Amino-5-benzothiazol-2-ylpyridin-3-yl)-N,N-dimethylbenzamide] | > 20 | 1 to 20
5 | CN(C)CCNC(=O)c1cccc(-c2cnc(N)c(-c3nc4ccccc4s3)c2)c1 [Example 187, 3-(6-Amino-5-benzothiazol-2-ylpyridin-3-yl)-N-(2-dimethylaminoethyl)benzamide] | 1 to 20 | 1 to 20
6 | CN(C)CCCOc1ccc(-c2cnc(N)c(-c3nc4ccccc4s3)c2)cn1 [Example 188, 5-Benzothiazol-2-yl-6′-(3-dimethylaminopropoxy)-[3,3′]bipyridinyl-6-ylamine] | 1 to 20 | 1 to 20
7 | Nc1ncc(-c2ccc(C(=O)N3CCOCC3)cc2)cc1-c1nc2ccccc2s1 [Example 189, [4-(6-Amino-5-benzothiazol-2-ylpyridin-3-yl)phenyl]morpholin-4-ylmethanone] | 1 to 20 | 1 to 20
8 | NC(=O)c1ccc(-c2cnc(N)c(-c3nc4ccccc4s3)c2)cc1 [Example 190, 4-(6-Amino-5-benzothiazol-2-ylpyridin-3-yl)benzamide] | > 20 | 1 to 20
9 | CCN(CC)C(=O)c1ccc(-c2cnc(N)c(-c3nc4ccccc4s3)c2)cc1 [Example 191, 4-(6-Amino-5-benzothiazol-2-ylpyridin-3-yl)-N,N-diethylbenzamide] | > 20 | > 20
10 | Nc1ncc(-c2cccc(C(=O)NCc3ccco3)c2)cc1-c1nc2ccccc2s1 [Example 192, 3-(6-Amino-5-benzothiazol-2-ylpyridin-3-yl)-N-furan-2-ylmethylbenzamide] | 1 to 20 | 1 to 20
11 | Nc1ncc(-c2ccc(C(=O)NCc3ccco3)cc2)cc1-c1nc2ccccc2s1 [Example 193, 4-(6-Amino-5-benzothiazol-2-ylpyridin-3-yl)-N-furan-2-ylmethylbenzamide] | 1 to 20 | 1 to 20
12 | CNC(=O)c1cccc(-c2cnc(N)c(-c3nc4ccccc4s3)c2)c1 [Example 194, 3-(6-Amino-5-benzothiazol-2-ylpyridin-3-yl)-N-methylbenzamide] | > 20 | > 20
13 | Nc1ncc(-c2ccc(C(=O)N3CCCCC3)cc2)cc1-c1nc2ccccc2s1 [Example 195, [4-(6-Amino-5-benzothiazol-2-ylpyridin-3-yl)phenyl]piperidin-1-ylmethanone] | > 20 | > 20
14 | NC(=O)c1cccc(-c2cnc(N)c(-c3nc4ccccc4s3)c2)c1 [Example 196, 3-(6-Amino-5-benzothiazol-2-ylpyridin-3-yl)benzamide] | 1 to 20 | 1 to 20
15 | Nc1ncc(-c2cnn(CCN3CCOCC3)c2)cc1-c1nc2ccccc2s1 [Example 197, 3-Benzothiazol-2-yl-5-[1-(2-morpholin-4-ylethyl)-1H-pyrazol-4-yl]pyridin-2-ylamine] | 1 to 20 | 1 to 20
16 | Nc1ncc(-c2ccc(C(=O)NC3CC3)cc2)cc1-c1nc2ccccc2s1 [Example 198, 4-(6-Amino-5-benzothiazol-2-ylpyridin-3-yl)-N-cyclopropylbenzamide] | > 20 | 1 to 20
17 | CNC(=O)c1ccc(-c2cnc(N)c(-c3nc4ccccc4s3)c2)cc1 [Example 199, 4-(6-Amino-5-benzothiazol-2-ylpyridin-3-yl)-N-methylbenzamide] | 1 to 20 | 1 to 20
18 | Nc1ncc(-c2ccc(C(=O)O)cc2)cc1-c1nc2ccccc2s1 [Example 201, 4-(6-Amino-5-benzothiazol-2-ylpyridin-3-yl)-benzoic acid] | 1 to 20 | 1 to 20

Row | SMILES | IC50 [1] [µM] | IC50 [2] [µM]
19 | Nc1ncc(-c2ccc(C(=O)O)nc2)cc1-c1nc2ccccc2s1 [Example 202, 6′-Amino-5′-benzothiazol-2-yl-[3,3′]bipyridinyl-6-carboxylic acid] | 1 to 20 | 0.1 to 1
20 | Nc1ncc(-c2cccc(C(=O)N3CCCC3)c2)cc1-c1nc2ccccc2s1 [Example 204, [3-(6-Amino-5-benzothiazol-2-ylpyridin-3-yl)phenyl]pyrrolidin-1-ylmethanone] | > 20 | 1 to 20
21 | CC(=O)NCCNC(=O)c1cccc(-c2cnc(N)c(-c3nc4ccccc4s3)c2)c1 [Example 205, N-(2-Acetylaminoethyl)-3-(6-amino-5-benzothiazol-2-ylpyridin-3-yl)benzamide] | 1 to 20 | 1 to 20
22 | Nc1ncc(-c2cccc(C(=O)N3CCCCC3)c2)cc1-c1nc2ccccc2s1 [Example 206, [3-(6-Amino-5-benzothiazol-2-ylpyridin-3-yl)phenyl]piperidin-1-ylmethanone] | > 20 | 1 to 20
23 | CCN(CC)CCNC(=O)c1cccc(-c2cnc(N)c(-c3nc4ccccc4s3)c2)c1 [Example 207, 3-(6-Amino-5-benzothiazol-2-ylpyridin-3-yl)-N-(2-diethylaminoethyl)benzamide] | 1 to 20 | 1 to 20
24 | C[C@@H]1CN(C(=O)c2cccc(-c3cnc(N)c(-c4nc5ccccc5s4)c3)c2)C[C@H](C)N1 [Example 208, [3-(6-Amino-5-benzothiazol-2-ylpyridin-3-yl)phenyl]-(cis-3,5-dimethylpiperazin-1-yl)methanone] | 1 to 20 | 0.1 to 1
25 | Nc1ncc(-c2cccc(C(=O)NCCCN3CCCC3)c2)cc1-c1nc2ccccc2s1 [Example 209, 3-(6-Amino-5-benzothiazol-2-ylpyridin-3-yl)-N-(3-pyrrolidin-1-ylpropyl)benzamide] | 1 to 20 | 1 to 20
26 | CN1CCC(N(C)C(=O)c2cccc(-c3cnc(N)c(-c4nc5ccccc5s4)c3)c2)CC1 [Example 210, 3-(6-Amino-5-benzothiazol-2-ylpyridin-3-yl)-N-methyl-N-(1-methylpiperidin-4-yl)benzamide] | 1 to 20 | 0.1 to 1
27 | Nc1ncc(-c2cccc(C(=O)N3CCN(CC(=O)N4CCCC4)CC3)c2)cc1-c1nc2ccccc2s1 [Example 211, 2-{4-[3-(6-Amino-5-benzothiazol-2-ylpyridin-3-yl)benzoyl]piperazin-1-pyrrolidin-1-yl}-1-ylethanone] | 1 to 20 | 1 to 20
28 | CC(=O)N1CCN(C(=O)c2cccc(-c3cnc(N)c(-c4nc5ccccc5s4)c3)c2)CC1 [Example 212, 1-{4-[3-(6-Amino-5-benzothiazol-2-ylpyridin-3-yl)benzoyl]piperazin-1-yl}ethanone] | > 20 | 1 to 20
29 | Nc1ncc(-c2cccc(C(=O)N3CCCC(O)C3)c2)cc1-c1nc2ccccc2s1 (stereo not drawn) [Example 213, [3-(6-Amino-5-benzothiazol-2-ylpyridin-3-yl)phenyl]-(3-hydroxypiperidin-1-yl)methanone] | 1 to 20 | 1 to 20
30 | C[C@@H]1CN(C(=O)c2cccc(-c3cnc(N)c(-c4nc5ccccc5s4)c3)c2)C[C@H](C)O1 [Example 214, [3-(6-Amino-5-benzothiazol-2-ylpyridin-3-yl)phenyl]-(cis-2,6-dimethylmorpholin-4-yl)methanone] | > 20 | 1 to 20
31 | CN(C)C(=O)CN1CCN(C(=O)c2cccc(-c3cnc(N)c(-c4nc5ccccc5s4)c3)c2)CC1 [Example 215, 2-{4-[3-(6-Amino-5-benzothiazol-2-ylpyridin-3-yl)benzoyl]piperazin-1-yl}-N,N-dimethylacetamide] | 1 to 20 | 1 to 20
32 | COCCN(CCOC)C(=O)c1cccc(-c2cnc(N)c(-c3nc4ccccc4s3)c2)c1 [Example 216, 3-(6-Amino-5-benzothiazol-2-ylpyridin-3-yl)-N,N-bis-(2-methoxyethyl)benzamide] | > 20 | > 20
33 | Nc1ncc(-c2cccc(C(=O)N3CCC(N4CCCC4)CC3)c2)cc1-c1nc2ccccc2s1 [Example 217, [3-(6-Amino-5-benzothiazol-2-ylpyridin-3-yl)phenyl]-(4-pyrrolidin-1-ylpiperidin-1-yl)methanone] | 1 to 20 | 0.1 to 1
34 | CN1CCC(NC(=O)c2cccc(-c3cnc(N)c(-c4nc5ccccc5s4)c3)c2)CC1 [Example 218, 3-(6-Amino-5-benzothiazol-2-ylpyridin-3-yl)-N-(1-methylpiperidin-4-yl)benzamide] | 1 to 20 | 0.1 to 1
35 | NC(=O)C1CCN(C(=O)c2cccc(-c3cnc(N)c(-c4nc5ccccc5s4)c3)c2)CC1 [Example 219, 1-[3-(6-Amino-5-benzothiazol-2-ylpyridin-3-yl)benzoyl]piperidine-4-carboxylic acid amide] | > 20 | 0.1 to 1
36 | CN(C)CCN(C)C(=O)c1cccc(-c2cnc(N)c(-c3nc4ccccc4s3)c2)c1 [Example 220, 3-(6-Amino-5-benzothiazol-2-ylpyridin-3-yl)-N-(2-dimethylaminoethyl)-N-methylbenzamide] | 1 to 20 | 0.1 to 1
